Test results taken from patent US20240391877A1, “COMPOUND AS INHIBITOR OF COMPLEMENT FACTOR D, AND PHARMACEUTICAL COMPOSITION AND USE THEREOF” (WUHAN CREATERNA SCIENCE AND TECHNOLOGY CO.,LTD., priority 2021, published 2024).
Where two headings read alike, the source gives them in different places.

Tests used:
[1] = target: T1, complement factor D (Homo sapiens, UniProt P00746); assay: Complement factor D inhibitory activity (C3b method) in vitro screening; product Bb detected by ELISA; format: biochemical; conditions: factor D + factor B + factor C3b, 37° C., Bb by MicroVue Bb Plus ELISA
T1 construct: purchased Complement tech
T1 sequence (P00746 26-253): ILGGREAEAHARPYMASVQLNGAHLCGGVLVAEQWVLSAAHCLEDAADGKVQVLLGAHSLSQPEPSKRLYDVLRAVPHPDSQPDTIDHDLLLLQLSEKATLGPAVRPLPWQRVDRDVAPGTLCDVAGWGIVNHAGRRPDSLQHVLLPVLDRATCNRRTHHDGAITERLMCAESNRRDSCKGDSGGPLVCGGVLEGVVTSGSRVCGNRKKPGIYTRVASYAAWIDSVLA
Source text: 1. Complement Factor D Inhibitory Activity (C3b Method) In Vitro Screening Experiment
V-bottom plate (AXYGEN), DMSO (Sigma), MicroVue Bb Plus ELISA kit (Quidel), complement factor C3b (abbreviated as factor C3b, Complement tech), complement factor B (abbreviated as factor B, Complement tech), complement factor D (abbreviated as factor D, Complement tech), EDTA (MACKLIN), GVB^o (Complement tech), EGTA (Aladdin), MgCl2 (Aladdin), NaOH (Sinopharm), microplate reader (Molecular Devices, SpectraMax i3x), microplate thermostatic shaker (Thermo, MB100-2A), pipette (Gilson)
0.1 M Mg-EGTA: 3.8 g of EGTA, 0.9521 g of MgCl2, and 0.7 g of NaOH were weighed, and the pH was adjusted to 7.5 with NaOH. Distilled water was added to make up to 100 mL, and the mixture was filtered with a […] sterile needle filter, stored in portions at 4° C.
Buffer: 0.1 M Mg-EGTA solution was diluted 10-fold to 10 mM with GVB^o buffer; • factor B working solution: 1 mg/mL factor B solution (10.75 μM) was diluted 6.7-fold to 1.6 μM with buffer; • factor C3b working solution: 1 mg/mL factor C3b solution (5.68 μM) was diluted 5-fold to […] with buffer; • factor D working solution: 0.1 mg/mL factor D solution (4.17 μM) was diluted 1303-fold to 3.2 nM with buffer.
Note: a. The above dilution multiples are for reference only and are adjusted according to the true concentration labeled on the reagent; • b. factor B: 93 KDa, factor D: 24 KDa, factor C3b: 176 KDa.
Stop solution: An appropriate amount of EDTA powder was weighed, dissolved in a certain amount of GVB^o buffer, and the pH was adjusted to 7.5 with NaOH. The mixture was stirred until clear and prepared into a 10 mM solution.
Compound stock solution: 40 mM compound solution was diluted with DMSO into 1 mM stock solution, and the 1 mM stock solution was diluted 3-fold with DMSO at 8 points to prepare compound stock solutions of various concentrations.
Compound working solution: diluted 250-fold with buffer to obtain compound solutions of various concentrations.
In the V-bottom plate, the experimental group was added with 10 μL of factor D solution and 10 μL of compound solution; the positive control group was added with 10 μL of factor D solution and buffer containing 0.4% DMSO; the blank control group was added with […] containing 0.2% DMSO; incubated at 37° C. for 15 min; the factor B working solution and the factor C3b working solution were mixed homogeneously at a ratio of 1:1; 20 µL of the mixture was added to each well and incubated at 37° C. for 30 min; the reaction was stopped by adding 40 μL of stop solution; the production of product Bb was detected by MicroVue Bb Plus ELISA kit.
1.4.1 The required wells of the ELISA plate were taken out and allowed to return to room temperature, and the remaining ones were repackaged and stored at 4° C.;
1.4.2 the wells were washed twice with 300 μL of 1× wash buffer, and incubated for 1 min at 25° C. for the first wash;
1.4.3 samples were diluted 8-fold with complement specimen diluent, and 100 μL of sample was added to each well and incubated at 25° C. for 30 min;
1.4.4 the liquid in the wells was discarded, and the wells were washed 5 times with 300 μL of 1× wash buffer, and incubated at room temperature for 1 min for the first wash;
1.4.5 50 μL of Bb Plus Conjugate was added to each well and incubated at 25° C. for 30 min;
1.4.6 the liquid in the wells was discarded, and the wells were washed 5 times with 300 μL of 1× wash buffer, and incubated at room temperature for 1 min for the first wash;
1.4.7 100 μL of […] (Substrate Solution) was added to each well and incubated at 25° C. for 15 min;
1.4.8 100 μL of stop solution was added to each well, and the absorbance was detected at 450 nm within 30 min.
1.5.1 Inhibition rate of each drug concentration:
The PC group represents 0% inhibition rate, and the NC group represents 100% inhibition rate. […]

[2] = test system: hemolysis of rabbit erythrocytes; assay: Rabbit erythrocyte hemolysis assay to evaluate inhibitory activity on the bypass pathway; format: cell-based; conditions: Oryctolagus cuniculus, 0.5 h, 48% NHP or 26.4% NHS, 37° C. 30 min, absorbance 415 nm
Source text: 2. Rabbit Erythrocyte Hemolysis Assay to Evaluate the Inhibitory Activity of Compounds on the Bypass Pathway
Normal Human Serum, NHS (collected from healthy people), Normal Human Plasma, NHP (Shanghai Yuduo), 96-well ELISA plate (Jet Biofil), Japanese big-eared white rabbit (Wuhan WQJX), Alsever's solution (Procell), centrifuge (Thermo, PICO17), thermostatic shaker (Shanghai Fuma), destaining shaker (Beijing Liuyi), cell counter (Invitrogen, Counter Countess II) (GVB^o, EGTA, MgCl2, NaOH, microplate reader, microplate thermostatic shaker, and pipette are equivalent to those in the experiment 1).
48% NHP: 100% NHP was diluted to 48% with buffer;
26.4% NPS: 100% NHS was diluted to 26.4% with buffer;
rabbit erythrocyte suspension: blood was taken from rabbit ear marginal vein, anticoagulated with Alsever's solution at a ratio of 1:1, stored in portions at 4° C., and could be stored for 4 weeks. Before use, the suspension was centrifuged at 500 g for 5 min to discard the Alsever's solution, washed three times with an equal volume of buffer and centrifuged at 500 g for 5 min, and finally the density was adjusted to 6×10^8 cells/mL with buffer.
In the 96-well ELISA plate, the experimental group was added with 50 μL of 48% NHP or 26.4% NHS and 50 μL of compound solution; the positive control group was added with 50 μL of 48% NHP or 26.4% NHS and 50 μL of buffer containing 0.2% DMSO; the blank control group was added with 50 μL of 48% inactivated NHP or 26.4% inactivated NHS and 0.2% DMSO buffer; the H2O group was added with 100 μL of double-distilled water; incubated at 37° C. for 15 min; 20 μL of rabbit erythrocyte suspension was added to each well and incubated on a shaker at 37° C. for 30 min; centrifuged at 2000 g (3380 rpm) for 5 min, and […] of supernatant was transferred to a new 96-well ELISA plate, and the absorbance was detected at 415 nm.
The PC group represents 100% hemolysis, and the NC group represents 0% hemolysis.
IC50: half-maximal inhibitory concentration. Data were collected to calculate the log value of hemolysis percentage versus compound concentration, and IC50 values were calculated using GraphPad Prism software.

[3] = In vivo pharmacokinetic study (PK assay on SD rats); conditions: Sprague-Dawley, rat, plasma; for bioavailability: read-out: Oral bioavailability F
Method: 3. In Vivo Pharmacokinetic Study of the Compounds of the Present Disclosure
After adaptive domestication, SPF grade SD rats were administered 1 or 3 mg/kg the compounds of the present disclosure by single gavage and tail vein injection, respectively. Plasma was collected at specific time points after administration, and the concentration of compounds in plasma was detected by LC-MS/MS (AB SCIEX Qtrap4500). The PK parameters of each compound were calculated using software to reflect the pharmacokinetic properties of the compounds of the present disclosure in vivo in animals.

[4] = PO (3% DMSO + 4% Tween), 3 mg/kg
[5] = PO (3% DMSO + 4% Tween), 1 mg/kg

| SMILES | IC50 [1] | IC50 [2] | AUC(0-t) ([3]; IV, 1 mg/kg) | Cmax ([3]; IV, 1 mg/kg) | half-life ([3]; IV, 1 mg/kg) | bioavailability ([3]; PO 3 mg/kg vs IV 1 mg/kg) | AUC(0-t) [3, 4] | Cmax [3, 4] | half-life [3, 4] | bioavailability ([3]; PO 1 mg/kg vs IV 1 mg/kg) | AUC(0-t) [3, 5] | Cmax [3, 5] | half-life [3, 5] |
| --- | --- | --- | --- | --- | --- | --- | --- | --- | --- | --- | --- | --- | --- |
| NCc1nccc(-c2cc(COc3ccccc3CC(=O)O)cc(N3CCC4(CC3)CC4)c2)c1F [Compound 023, 2-(2-((3-(2-(aminomethyl)-3-fluoropyridin-4-yl)-5-(6-azaspiro[2.5]octan-6-yl)benzyl)oxy)phenyl)acetic acid] | 15 nM | 76 nM | 7060 ng·h/mL | 3410 ng/mL | 4.58 h | 35.3% | 7480 ng·h/mL | 1020 ng/mL | 4.1 h |  |  |  |  |
| NCc1cccc(-c2cc(COc3ccccc3CC(=O)O)cc(N3CCC4(CC3)CC4)c2)c1F [Compound 007, 2-(2-((3′-(aminomethyl)-2′-fluoro-5-(6-azaspiro[2.5]octan-6-yl)-[1,1′-biphenyl]-3-yl)methoxy)phenyl)acetic acid] | 12 nM | 59 nM | 3290 ng·h/mL | 3270 ng/mL | 0.64 h |  |  |  |  | 70.2% | 2310 ng·h/mL | 936 ng/mL | 1.46 h |
| NCc1cccc(-c2cc(COc3ccccc3CC(=O)O)cc(N3CCC4(CC3)CC4)c2)c1 [Compound 001, 2-(2-((3′-(aminomethyl)-5-(6-azaspiro[2.5]octan-6-yl)-[1,1′-biphenyl]-3-yl)methoxy)phenyl)acetic acid] | 10 nM | 41 nM | 8030 ng·h/mL | 1800 ng/mL | 3.59 h |  |  |  |  | 40.3% | 3240 ng·h/mL | 577 ng/mL | 4.13 h |
